Measured values published in patent US7259239B2, “Lipopolysaccharide α-2,3 sialyltransferase of campylobacter jejuni and its uses” (priority 1998, dated 2007).

Key:
[1] = target: C. jejuni α-2,3-sialyltransferase (CST-06, MBP-fusion protein of the full length sialyltransferase) (Campylobacter jejuni, UniProt Q9RGF1); assay: Acceptor specificity and kinetics on p-nitrophenyl-glycosides with malE-cst (CST-06); type: biochemical; conditions: p-NP-glycoside acceptor at 2.0 mM; for Relative Activity (CST-06): acceptor with lowest activity given the value 1
Sequence of C. jejuni α-2,3-sialyltransferase (CST-06, MBP-fusion protein of the full length sialyltransferase) (Q9RGF1 entry or part of it): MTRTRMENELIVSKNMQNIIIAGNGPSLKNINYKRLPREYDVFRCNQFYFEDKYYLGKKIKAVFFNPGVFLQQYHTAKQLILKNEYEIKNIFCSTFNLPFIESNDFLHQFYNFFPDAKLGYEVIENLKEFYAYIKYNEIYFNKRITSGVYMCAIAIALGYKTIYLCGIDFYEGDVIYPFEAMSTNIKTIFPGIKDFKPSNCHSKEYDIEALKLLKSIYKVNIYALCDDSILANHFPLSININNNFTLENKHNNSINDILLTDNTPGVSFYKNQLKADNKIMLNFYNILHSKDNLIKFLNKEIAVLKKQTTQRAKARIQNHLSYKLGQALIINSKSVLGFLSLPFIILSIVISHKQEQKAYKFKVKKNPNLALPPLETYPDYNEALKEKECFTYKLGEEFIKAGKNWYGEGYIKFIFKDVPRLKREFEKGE
Description: (§1) Kinetic analysis of acceptors was performed at 37° C. with p-NP-glycosides at concentrations of 0.1 to 10 mM, with CMP-Neu5Ac at 1 mM. Kinetic analysis of the donor CMP-Neu5Ac was performed at a concentration of 20 μM to 1000 μM with p-NP-lactose at 5 mM. Care was taken to ensure that the level of acceptor conversion was between about 5-10% for acceptor kinetic assays.
(§2) For donor kinetics the amount of conversion of CMP-Neu5Ac was calculated from the amount of product formed compared to an internal standard of 10 μM p-NP-glucose added after the reaction. This peak was well resolved from the acceptor and product peaks. The reactions with p-NP-glycosides were stopped by addition of an equal volume of 2% SDS, 20 mM EDTA and heated to 75° C. for 3 minutes and then diluted 1:1 (or maximally 1:10 for 10 mM concentrations) with water. The samples were then analyzed by CE using a diode array detector scanning between 260 and 300 nm, with the peaks at detected at 290 nm. The peaks from the electropherograms were analyzed using manual peak integration with the P/ACE Station™ software. For rapid detection of enzyme activity, samples from the transferase reaction mixtures were examined by thin layer chromatography on silica-60 TLC plates (E. Merck) as described in Gilbert et al. (1996) supra.
(§3) The acceptor specificity of the C. jejuni α-2,3-sialyltransferase was examined with a panel of p-NP-glycosides having both β1→4 and β1→3 linkages. The kinetic data for all of the acceptors was collected using the MBP-fusion protein of the full length sialyltransferase. The data for the acceptor specificity were collected first by assaying the enzyme at an acceptor concentration of 2.0 mM. The acceptor with the lowest activity was given the value of 1 for the comparison of activity. These reaction conditions were used in a comparison (Table 3) of the C. jejuni enzyme with the Lst protein from N. meningitidis (Gilbert et al. (1996) J. Biol. Chem. 271: 28271-28276). The N. meningitidis Lst protein was also a MBP protein fusion which was soluble and purified by affinity chromatography.

[2] = target: T1, Lst protein from N. meningitidis (NST-33, MBP protein fusion) (Neisseria meningitidis serogroup B, UniProt P72097); type: biochemical; conditions: p-NP-glycoside acceptor at 2.0 mM; for Relative Activity (NST-33): acceptor with lowest activity given the value 1
T1 construct: made in house
T1 sequence (P72097 whole entry, the tested form may be a part): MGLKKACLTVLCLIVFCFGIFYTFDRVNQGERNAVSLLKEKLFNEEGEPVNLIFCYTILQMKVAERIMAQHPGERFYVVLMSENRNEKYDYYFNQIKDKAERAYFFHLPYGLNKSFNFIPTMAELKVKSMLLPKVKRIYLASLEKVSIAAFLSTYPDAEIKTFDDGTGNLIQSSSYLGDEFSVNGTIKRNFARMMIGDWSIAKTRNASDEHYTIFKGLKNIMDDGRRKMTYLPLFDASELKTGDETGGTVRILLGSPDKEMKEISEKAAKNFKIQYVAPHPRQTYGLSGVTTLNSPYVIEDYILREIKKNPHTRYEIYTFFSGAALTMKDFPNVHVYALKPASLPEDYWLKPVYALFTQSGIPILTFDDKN
Description: as §2, §3

[3] = test system: CC(=O)N[C@H]1[C@H](Oc2ccc([N+](=O)[O-])cc2)O[C@H](CO)[C@@H](O[C@@H]2O[C@H](CO)[C@H](O)[C@H](O)[C@H]2O)[C@@H]1O; assay: Acceptor specificity and kinetics on p-nitrophenyl-glycosides with malE-cst (CST-06); type: biochemical, Campylobacter jejuni; conditions: other: 37° C., p-NP-glycosides 0.1 to 10 mM, CMP-Neu5Ac 1 mM
Description: as §1, §2, §3

[4] = test system: CC(=O)N[C@H]1[C@@H](Oc2ccc([N+](=O)[O-])cc2)O[C@H](CO)[C@H](O)[C@@H]1O[C@@H]1O[C@H](CO)[C@H](O)[C@H](O)[C@H]1O; assay: as above; type: biochemical, Campylobacter jejuni; conditions: other: 37° C., p-NP-glycosides 0.1 to 10 mM, CMP-Neu5Ac 1 mM
Description: as §1, §2, §3

[5] = test system: [H][C@@]1(O[C@H]2[C@H](O)[C@@H](O)[C@H](Oc3ccc([N+](=O)[O-])cc3)O[C@@H]2CO)O[C@H](CO)[C@H](O)[C@H](O)[C@H]1O; assay: as above; type: biochemical, Campylobacter jejuni; conditions: other: 37° C., p-NP-glycosides 0.1 to 10 mM, CMP-Neu5Ac 1 mM
Description: as §1, §2, §3

| Compound | Relative Activity (CST-06) [1] | Relative Activity (NST-33) [2] | Enzyme activity mU/mg (CST-06) [1] | Enzyme activity mU/mg (NST-33) [2] | Km [3] | Km [4] | Km [5] |
| --- | --- | --- | --- | --- | --- | --- | --- |
| O=[N+]([O-])c1ccc(OC2OC(CO)C(OC3OC(CO)C(OC4OC(CO)C(O)C(O)C4O)C(O)C3O)C(O)C2O)cc1 (stereo not drawn) [Gal-α-1,4-Gal-β-Glc] | 0 | 5.6 |  |  |  |  |  |
| O=[N+]([O-])c1ccc(O[C@@H]2O[C@H](CO)[C@@H](O[C@@H]3O[C@H](CO)[C@H](O)[C@H](O)[C@H]3O)[C@H](O)[C@H]2O)cc1 [Gal-β-1,4-Glc] | 4.9 | 7.8 | mU/mg = 420 | mU/mg = 30 |  |  |  |
| C. jejuni α-2,3-sialyltransferase (CST-06, MBP-fusion protein of the full length sialyltransferase) (Campylobacter jejuni) |  |  |  |  | 0.8 mM ± 0.2 mM | 2.7 mM ± 0.1 mM | 1.3 mM ± 0.12 mM |
| O=[N+]([O-])c1ccc(O[C@@H]2O[C@H](CO)[C@H](O)[C@H](O)[C@H]2O)cc1 [Gal-β] | 1 | 1.2 |  |  |  |  |  |
